Active and inactive are the calls of the source. The calls are words filed in the database; no cut-off is given here. Where a SMILES comes first, the peptide text is derived from it. Bridges are numbered along the chain shown (N, C = ends). [ ]: non-standard residue; d: D form. ξ: configuration not given here. ξD = NC(CC(=O)O)C(=O)O
How the values were obtained:
Format in all cases: cell-based
[1] = target: Neuronal acetylcholine receptor; alpha3/beta2 (Rattus norvegicus) (UniProt P04757+P12390); assay: Inhibition of rat alpha3/beta2 nAChR expressed in Xenopus laevis oocytes assessed as inhibition of acetylcholine-induced current at 10 uM by two electrode voltage-clamp assay; settings: Oocyte
[2] = target: Nicotinic acetylcholine receptor alpha6/alpha3/beta4 (Homo sapiens) (UniProt P30926+P32297+Q15825); assay: Inhibition of human alpha6/alpha3/beta4 nAChR expressed in Xenopus laevis oocytes at 10 uM; settings: Oocyte
Oocyte [3] = assay: Inhibition of human alpha6/alpha3/beta2/beta3 nAChR expressed in Xenopus laevis oocytes at 10 uM
[4] = target: Neuronal acetylcholine receptor; alpha3/beta4 (Rattus norvegicus) (UniProt P04757+P12392); assay: Inhibition of rat alpha3/beta4 nAChR expressed in Xenopus laevis oocytes assessed as inhibition of acetylcholine-induced current at 10 uM by two electrode voltage-clamp assay; settings: Oocyte
[5] = target: Neuronal acetylcholine receptor subunit alpha-7 (Rattus norvegicus) (UniProt Q05941); assay: Inhibition of rat alpha7 nAChR expressed in Xenopus laevis oocytes assessed as inhibition of acetylcholine-induced current at 10 uM by two electrode voltage-clamp assay; settings: Oocyte
Neuronal acetylcholine receptor subunit alpha-7 (Rattus norvegicus), sequence (Q05941 whole entry): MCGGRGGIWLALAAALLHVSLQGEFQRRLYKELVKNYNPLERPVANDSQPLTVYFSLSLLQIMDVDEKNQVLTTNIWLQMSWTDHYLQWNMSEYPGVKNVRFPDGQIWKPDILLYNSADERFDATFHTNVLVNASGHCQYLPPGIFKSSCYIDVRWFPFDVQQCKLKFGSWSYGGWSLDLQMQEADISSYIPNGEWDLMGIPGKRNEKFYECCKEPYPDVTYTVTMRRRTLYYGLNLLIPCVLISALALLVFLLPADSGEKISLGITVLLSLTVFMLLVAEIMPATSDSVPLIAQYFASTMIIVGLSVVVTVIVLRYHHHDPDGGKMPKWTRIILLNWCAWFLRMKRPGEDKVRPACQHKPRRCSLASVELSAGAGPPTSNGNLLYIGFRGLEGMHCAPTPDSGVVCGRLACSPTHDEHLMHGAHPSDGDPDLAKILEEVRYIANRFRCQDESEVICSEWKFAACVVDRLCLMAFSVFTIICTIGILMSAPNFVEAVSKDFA

[6] = target: Nicotinic acetylcholine receptor alpha9/alpha10 (Rattus norvegicus) (UniProt P43144+Q9JLB5); assay: Inhibition of rat alpha9/alpha10 nAChR expressed in Xenopus laevis oocytes assessed as inhibition of acetylcholine-induced current at 10 uM by two electrode voltage-clamp assay; settings: Oocyte
Oocyte [7] = assay: Inhibition of rat alpha6/alpha3/beta2/beta3 nAChR expressed in Xenopus laevis oocytes assessed as inhibition of acetylcholine-induced current at 10 uM by two electrode voltage-clamp assay
[8] = target: Nicotinic acetylcholine receptor alpha6/alpha3/beta4 (Rattus norvegicus) (UniProt P04757+P12392+P43143); assay: Inhibition of rat alpha6/alpha3/beta4 nAChR expressed in Xenopus laevis oocytes assessed as inhibition of acetylcholine-induced current at 10 uM by two electrode voltage-clamp assay; settings: Oocyte
[9] = target: Neuronal acetylcholine receptor; alpha9/alpha10 (Homo sapiens) (UniProt Q9UGM1+Q9GZZ6); assay: Inhibition of human alpha9/alpha10 nAChR expressed in Xenopus laevis oocytes at 10 uM; settings: Oocyte
Oocyte [10] = assay: Inhibition of rat alpha2/beta4 nAChR expressed in Xenopus laevis oocytes assessed as inhibition of acetylcholine-induced current at 10 uM by two electrode voltage-clamp assay
[11] = target: T1, Neuronal acetylcholine receptor; alpha4/beta2 (Rattus norvegicus) (UniProt P09483+P12390); assay: Inhibition of rat alpha4/beta4 nAChR expressed in Xenopus laevis oocytes assessed as inhibition of acetylcholine-induced current at 10 uM by two electrode voltage-clamp assay; settings: Oocyte
Oocyte [12] = assay: Inhibition of mouse alpha1/beta1/delta/epsilon nAChR expressed in Xenopus laevis oocytes assessed as inhibition of acetylcholine-induced current at 10 uM by two electrode voltage-clamp assay
Oocyte [13] = assay: Inhibition of human alpha2/beta2 nAChR expressed in Xenopus laevis oocytes at 10 uM
[14] = target: Neuronal acetylcholine receptor; alpha2/beta4 (Homo sapiens) (UniProt P30926+Q15822); assay: Inhibition of human alpha2/beta4 nAChR expressed in Xenopus laevis oocytes at 10 uM; settings: Oocyte
[15] = target: Neuronal acetylcholine receptor subunit alpha-7 (Rattus norvegicus) (UniProt Q05941); assay: Inhibition of rat alpha7 nAChR expressed in Xenopus laevis oocytes assessed as inhibition of acetylcholine-induced current at 100 nM preincubated with compound for 1 hr followed by compound washout and measured for 20 mins by two electrode voltage-clamp assay; settings: Oocyte
[16] = target: Neuronal acetylcholine receptor subunit alpha-7 (Homo sapiens) (UniProt P36544); assay: Inhibition of human alpha7 nAChR expressed in Xenopus laevis oocytes at 10 uM; settings: Oocyte
Neuronal acetylcholine receptor subunit alpha-7 (Homo sapiens), sequence (P36544 whole entry): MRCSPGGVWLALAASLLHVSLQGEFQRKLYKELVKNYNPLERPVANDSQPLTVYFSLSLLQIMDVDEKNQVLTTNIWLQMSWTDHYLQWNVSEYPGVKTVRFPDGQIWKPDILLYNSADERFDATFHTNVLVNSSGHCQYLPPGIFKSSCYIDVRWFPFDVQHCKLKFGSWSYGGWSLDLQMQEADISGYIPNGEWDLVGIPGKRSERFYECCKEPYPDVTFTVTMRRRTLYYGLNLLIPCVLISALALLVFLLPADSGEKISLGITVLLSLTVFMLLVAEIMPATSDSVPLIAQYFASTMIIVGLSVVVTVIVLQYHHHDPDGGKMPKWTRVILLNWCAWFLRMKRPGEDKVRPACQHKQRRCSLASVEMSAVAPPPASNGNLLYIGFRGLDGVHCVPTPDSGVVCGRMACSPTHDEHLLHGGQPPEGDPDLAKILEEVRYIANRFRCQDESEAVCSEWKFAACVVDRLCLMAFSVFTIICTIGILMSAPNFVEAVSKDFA

[17] = target: Neuronal acetylcholine receptor; alpha3/beta4 (Homo sapiens) (UniProt P30926+P32297); assay: Inhibition of human alpha3/beta4 nAChR expressed in Xenopus laevis oocytes at 10 uM; settings: Oocyte
[18] = target: Neuronal acetylcholine receptor; alpha4/beta4 (Homo sapiens) (UniProt P30926+P43681); assay: Inhibition of human alpha4/beta4 nAChR expressed in Xenopus laevis oocytes at 10 uM; settings: Oocyte
[19] = target: Neuronal acetylcholine receptor; alpha2/beta2 (Rattus norvegicus) (UniProt P12389+P12390); assay: Inhibition of rat alpha2/beta2 nAChR expressed in Xenopus laevis oocytes assessed as inhibition of acetylcholine-induced current at 10 uM by two electrode voltage-clamp assay; settings: Oocyte
[20] = target: Neuronal acetylcholine receptor; alpha4/beta2 (Homo sapiens) (UniProt P17787+P43681); assay: Inhibition of human alpha4/beta2 nAChR expressed in Xenopus laevis oocytes at 10 uM; settings: Oocyte
[21] = target: Neuronal acetylcholine receptor; alpha3/beta2 (Homo sapiens) (UniProt P17787+P32297); assay: Inhibition of human alpha3/beta2 nAChR expressed in Xenopus laevis oocytes at 10 uM; settings: Oocyte
[22] = target: T1, Neuronal acetylcholine receptor; alpha4/beta2 (Rattus norvegicus); assay: Inhibition of rat alpha4/beta2 nAChR expressed in Xenopus laevis oocytes assessed as inhibition of acetylcholine-induced current at 10 uM by two electrode voltage-clamp assay; settings: Oocyte
[23] = Inhibition of rat alpha2/beta4 nAChR expressed in Xenopus laevis oocytes assessed as inhibition of acetylcholine-induced current by two electrode voltage-clamp assay; settings: Oocyte
[24] = Inhibition of mouse alpha1/beta1/delta/epsilon nAChR expressed in Xenopus laevis oocytes assessed as inhibition of acetylcholine-induced current by two electrode voltage-clamp assay; settings: Oocyte
[25] = Inhibition of rat alpha6/alpha3/beta2/beta3 nAChR expressed in Xenopus laevis oocytes assessed as inhibition of acetylcholine-induced current by two electrode voltage-clamp assay; settings: Oocyte

## CC[C@H](C)[C@@H]1NC(=O)[C@H](CC(=O)O)NC(=O)[C@@H]2CCCN2C(=O)[C@H](CC(N)=O)NC(=O)[C@H](CCC(N)=O)NC(=O)[C@H](CC(C)C)NC(=O)[C@H]([C@@H](C)CC)NC(=O)[C@@H]2CSSC[C@H](NC(=O)[C@@H](N)CC(=O)O)C(=O)N[C@@H](CSSC[C@@H](C(N)=O)NC1=O)C(=O)N[C@@H](CO)C(=O)N[C@@H](CCC(=O)O)C(=O)N1CCC[C@H]1C(=O)N1CCC[C@H]1C(=O)N2 (H-DCCSEPPCILQNPDIC-NH2; disulfide 2-8, 3-16)
[1]
  inhibition: inactive
[2]
  inhibition: inactive
Oocyte [3]
  inhibition: inactive
[4]
  inhibition: inactive
[5]
  inhibition: inactive
[6]
  inhibition: inactive
Oocyte [7]
  inhibition: inactive
[8]
  inhibition: inactive
[9]
  inhibition: inactive
Oocyte [10]
  inhibition: inactive
[11]
  inhibition: inactive
Oocyte [12]
  inhibition: inactive
Oocyte [13]
  inhibition: inactive
[14]
  inhibition: inactive
[15]
  inhibition: inactive
[16]
  inhibition: inactive
[17]
  inhibition: inactive
[18]
  inhibition: inactive
[19]
  inhibition: inactive
[20]
  inhibition: inactive
[21]
  inhibition: inactive
[22]
  inhibition: inactive

## CC[C@H](C)[C@@H]1NC(=O)[C@H](CC(=O)O)NC(=O)[C@@H]2CCCN2C(=O)[C@H](CC(N)=O)NC(=O)[C@H](CCC(N)=O)NC(=O)[C@H](CC(C)C)NC(=O)[C@H]([C@@H](C)CC)NC(=O)[C@@H]2CSSC[C@H](NC(=O)C(N)CC(=O)O)C(=O)N[C@@H](CSSC[C@@H](C(N)=O)NC1=O)C(=O)N[C@@H](CO)C(=O)N[C@@H](C)C(=O)N1CCC[C@H]1C(=O)N1CCC[C@H]1C(=O)N2 (stereo not given in full) (H-[ξD]CCSAPPCILQNPDIC-NH2; disulfide 2-8, 3-16)
[23]
  IC50: > 10 µM
[24]
  IC50: > 10 µM
[25]
  IC50: 0.112 µM
